According to patent publication US11248016B2, “Glycolipids and pharmaceutical compositions thereof for use in therapy” (THE UNIVERSITY OF NOTTINGHAM, priority 2014, dated 2022):

Columns and labels:
[1] = tested on: primary canine histocytic sarcoma tumour cells; assay: Primary canine tumour cell experiments; format: cell-based, dog; details: single dose Cisplatin (10 μM), 6 days
Protocol: Cells were cultured for 6 days with a single dose treatment of Cisplatin™ (10 μM) or a combination of Cisplatin™ plus a compound of Formula II (active). Images were taken after 6 days treatment and are representative of three independently treated wells. Each image (40× magnification) represents the majority of the well area and is of an equivalent area in each photograph.
Known inhibitors of protein synthesis such as hippuristanol have proven potent anti-cancer properties when used in combination with chemotherapeutic agents such as Cisplatin™ or Doxorubicin™. However hippuristanol is naturally found in coral to is scarce and expensive to obtain, furthermore it is very difficult and expensive to synthesise. […] In particular this combination has a potent effect at slowing proliferation or killing cancer cells. Slow growing and difficult to treat tumour cell types such as A549 lung cancer cells, SH-SY5Y neuroblastoma or SKOV-3 cancer cells are all sensitised by exposure to Formula II to very low doses of Cisplatin™ (FIGS. 4d, 4e, 4f and 7)—a complete kill can be achieved in both A549 and SH-SY5Y cells after a single dose treatment with g quantities of a compound of Formula II in combination with 1 μM or 2.5 μM treatments of Cisplatin™. […]

[2] = tested on: SKOV3 ovarian cancer cells; assay: Cell proliferation, SKOV3; format: cell-based; details: 96 hours, Cisplatin alone; FIG. 4f
Protocol: Growth of SKOV3 cell lines were slowed by the treatment with a compound of Formula II at higher doses. Experiment represents 6 biological repetitions, Error=S.E.M.
Cisplatin™ resistant SKOV-3 ovarian cancer cells were sensitised to treatment with a compound of Formula II in combination with 2.5 μM Cisplatin™ (p=0.003) (right hand bar in the figure), no effect is observed from treatment with equivalent levels of a compound of Formula II alone (left hand bar in the figure) or Cisplatin™ alone.
(§1) Prior to treatment cells were cultured to an appropriate confluency in 96 well tissue culture plates (Fisher). Cells remained either supplemented with fresh media or treated with fresh media containing active or an equivalent volume of DMSO (vehicle control). Where used, Cisplatin™ was diluted to a stock concentration in Dimethylformamide (DMF), then handled as per the manufacturer's instructions. To determine relative cell viability, reagents WST-1 (Roche) or MTT (Sigma) were used as per the manufacturer's instructions and absorbance at 450 nm measured using a Victor plate reader (Perkin Elmer).

[3] = tested on: NLGN2 5′UTR; assay: NLGN translation reporter assay, neuroligin 2; format: cell-based, human; details: equivalent treatment; FIG. 5 and FIG. 10
Protocol: (§2) The mechanism of action and level of activity of Formula II are consistent with and comparative to a proven translational inhibitor extracted from a rare coral species (Hippuristanol—a proven inhibitor of eIf4A). In this experiment 1 μM of Hippuristanol and 1.3 μM of Formula I was used
(§3) FIG. 10—Compound 46, NLGN Translation reporter assay.
Treatment with the compound of Formula II (and compound 46) (FIG. 5 and FIG. 10) selectively decrease the firefly luciferase signal from a reporter construct containing the NLGN1 5′UTR upstream of a firefly luciferase gene. The translation of luciferase reporters downstream of the NLGN1 5′UTR has been proven to be dependent on the activity of the translation initiation complex eIF4F (Gkogkas et al Nature 2013, 493:371-7)—a complex containing the helicase eIF4A. […]
(§4) Cells were transfected using FuGene 6 (Roche) following the manufacturer's instructions. The activities of firefly and renilla luciferase in lysates prepared from transfected cells were measured using a commercially available Luciferase reporter assay system (Promega) and light emission was measured over a 10 sec interval using a TECAN luminometer. […]

[4] = tested on: NLGN1 5′UTR; assay: NLGN translation reporter assay, neuroligin 1; format: cell-based, human; details: FIG. 5: 1 μM Hippuristanol, 1.3 μM compound; FIG. 10: compound 46
Protocol: as §2, §3
Direct evidence is provided that inhibiting eIF4A represents a new route to treating ASD based on the data presented by Gkogkas et al. Nature 2013, 493:371-7.
Treatment with the compound of Formula II (and compound 46) (FIG. 5 and FIG. 10) selectively decrease the firefly luciferase signal from a reporter construct containing the NLGN1 5′UTR upstream of a firefly luciferase gene. The translation of luciferase reporters downstream of the NLGN1 5′UTR has been proven to be dependent on the activity of the translation initiation complex eIF4F (Gkogkas et al Nature 2013, 493:371-7)—a complex containing the helicase eIF4A. Equivalent treatment had little effect on the signal generated from either a co-transfected renilla luciferase reporter control or cells transfected with an equivalent construct containing the NLGN2 5′UTR upstream of a firefly luciferase gene (FIG. 5 and FIG. 10).
Experiments conducted using Firefly luciferase reporter plasmids containing the 5′ untranslated regions (UTRs) of the genes amyloid precursor protein (APP), thioredoxin (TXN) were conducted with reagents and materials described by Bottley et al, 2010. Experiments conducted using Firefly luciferase reporter plasmids containing the 5′ UTRs of the genes EGFR, BACE1 and Actin were conducted with reagents and materials described by Webb, 2012 (http://etheses.nottingham.ac.uk/2724/). […]
as §4

[5] = tested on: A549 lung carcinoma cells; assay: Cell proliferation, A549 (WST-1 / MTT); format: cell-based; details: for sensitisation of A549 cells to low dose cisplatin: range of doses with range of doses of Cisplatin, FIG. 14; for sensitisation of A549 cells to low dose cisplatin / growth of A549 cells: 96 hrs; for growth of A549 cells: range of doses, dose dependant manner, FIG. 13
Protocol: Cisplatin™ resistant A549 lung cancer cells were sensitised to treatment with a compound of Formula II in combination with 1 μM Cisplatin™—a complete kill is achieved at higher doses of a compound of Formula II.
Cells were treated with a range of doses of active for either 48 or 96 hrs. Each data point is representaive of at least 4 biological repetitions.
Cells were treated with either 2 μM Cisplatin™ alone, c. 1 μg active alone or c. 1 μg active in combination with 2 μM Cisplatin™. A WST-1 cell proliferation assay was performed 96 hrs after treatment. Experiment represents 4 independent biological repetitions.
A WST-1 cell proliferation assay was performed 72 hrs after treatment. Experiment represents 4 independent biological repetitions.
Cells were treated with either 2 μM or 10 μM Cisplatin™ alone, or 10 μg synthetic molecule Formula II in combination with 2 μM Cisplatin™. A WST-1 cell proliferation assay was performed 72 hrs after treatment. Experiment represents 4 independent biological repetitions. A 5-fold increase in the efficacy of Cisplatin™ is observed when treated in combination with the synthetic Formula II.
Cells were treated with either 2 μM, 5 μM or 10 μM Cisplatin™ alone, 50 μg synthetic acetyl derivative molecule or 30 μg in combination with 2 μM Cisplatin™. A WST-1 cell proliferation assay was performed 72 hrs after treatment. Experiment represents four independent biological repetitions. No effect was detected after treatment with 50 μg synthetic acetyl derivative, however an 8-fold increase in the efficacy of Cisplatin™ is observed when treated in combination with 30 μg synthetic acetyl derivative and […] Cisplatin™.
FIG. 11—Natural molecule plus cisplatin compared to Hippuristanol plus cisplatin. […] The ratio between anti-proliferative activity to chemo sensitizing activity is also equivalent.
FIG. 13—Dose curves of compounds 46, 99 and 123. […] Cells were treated with a range of doses of active for 96 hrs. Each data point is representative of at least 4 biological repetitions and error=s.e.m).
FIG. 14—Cisplatin™ combination experiments—Compounds 46, 99 and 123. […] Cells were treated with a range of doses of active in combination with a range of doses of Cisplatin™ for 96 hrs. Each data point is representative of at least 4 biological repetitions and error=s.e.m).
as §1

[6] = tested on: firefly luciferase translation reporter; assay: Firefly luciferase translation reporter assay; format: cell-based, human; details: Hippuristanol (1 μM) alone, 4 hrs; FIG. 3c
Excerpt: Graphs represent 4 biological repetitions per treatment—2 independent treatments of a compound of Formula II.
Graphs represent 4 biological repetitions per treatment. […] No difference is observed between Hippuristanol and Hippuristanol plus a compound of Formula II.
The degree of translation inhibition is shown to be equivalent to that of a known inhibitor of translation, hippuristanol (FIGS. 3b and 5). Comparative structured 5′UTR firefly luciferase reporter experiments conducted using either hippuristanol or a compound of Formula II show the inhibition of reporter levels is equivalent.
Cells were transfected using FuGene 6 (Roche) following the manufacturer's instructions. The activities of firefly and renilla luciferase in lysates prepared from transfected cells were measured using a commercially available Luciferase reporter assay system (Promega) and light emission was measured over a 10 sec interval using a TECAN luminometer. For each experiment described, data was obtained from a minimum of at least 3 biological repetitions per treatment.

[7] = tested on: three Gag isoforms; details: increasing amounts, dose-response; cited from earlier work
[8] = tested on: HCMV; details: cited from earlier work

## N.N.[Cl][Pt][Cl] [Cisplatin, cis-diamminedichloroplatinum(II), reference compound]
[1]
  canine tumour cells after Cisplatin only: many cancer cells remain
[2]
  effect on SKOV-3 cells, Cisplatin alone: no effect

## CC/C=C\C/C=C\C/C=C\CCCCCCCC(=O)OCC(COC(=O)CCCCCCC/C=C\C/C=C\C/C=C\CC)CO[C@@H]1O[C@H](CO)[C@H](O)[C@H](O)[C@H]1O [Compound 46]
[3]
  signal of NLGN2 5′UTR firefly luciferase reporter: little effect
[4]
  translation of NLGN1 5′UTR firefly luciferase reporter relative to neuroligin 2: selectively inhibits the translation
[5]
  sensitisation of A549 cells to low dose cisplatin: sensitizes
  growth of A549 cells: inhibits the growth

## CC/C=C\C/C=C\C/C=C\CCCCCCCC(=O)OCC(COC(=O)CCCCCCC/C=C\C/C=C\C/C=C\CC)CO[C@@H]1O[C@H](CO)[C@@H](O)[C@H](O)[C@H]1O [Compound 99]
[5]
  sensitisation of A549 cells to low dose cisplatin: sensitizes
  growth of A549 cells: inhibits the growth

## CC/C=C\C/C=C\C/C=C\CCCCCCCC(=O)OC[C@H](CO[C@H]1O[C@H](CO)[C@@H](O)[C@H](O)[C@H]1O)OC(=O)CCCCCCC/C=C\C/C=C\C/C=C\CC [Compound 123]
[5]
  sensitisation of A549 cells to low dose cisplatin: sensitizes
  growth of A549 cells: inhibits the growth

## C[C@H]1C[C@@]2(O[C@H]3C[C@H]4[C@@H]5CC[C@H]6C[C@H](O)CC[C@]6(C)[C@H]5[C@@H](O)C[C@]4(C)[C@H]3[C@@]2(C)O)OC1(C)C [Hippuristanol, reference compound]
[6]
  inhibition of translation reporter: significant inhibition
[7]
  translation of the three Gag isoforms: inhibits the translation of the three Gag isoforms
[4]
  translation of NLGN1 5′UTR firefly luciferase reporter relative to neuroligin 2: selective inhibition
[5]; alone, FIG. 11
  anti-proliferative activity on A549 cells: anti-proliferative

## CC(/C=C/C(C)=C/[C@@H]1Cc2nc(cs2)[C@@H](C)C[C@@H](N)CC(=O)O[C@@H](C)C/C(C)=C/C=C\C(=O)O1)=C\CN(C)C [Pateamine A]
[8]
  replication of HCMV: inhibits the replication of HCMV

## CC/C=C\C/C=C\C/C=C\CCCCCCCC(=O)OC[C@H](COC1OC(COC(C)=O)C(OC(C)=O)C(OC(C)=O)C1OC(C)=O)OC(=O)CCCCCCC/C=C\C/C=C\C/C=C\CC (some centres unmarked) [acetyl derivative of Formula II]
[5]; 30 μg plus 2 μM Cisplatin, WST-1, 72 hrs, FIG. 9c
  increase in the efficacy of Cisplatin: 8 fold
[5]; 50 μg alone, WST-1, 72 hrs, FIG. 9c
  effect on A549 cells, compound alone: No effect
